Data as given in the supplement of paper PMC10307832.

Tests used:
Assay in all cases: relative viability (nuclei count vs DMSO), 5 days (fraction); higher = more cells survive
ABC-1 = system: ABC-1
How it was run: (§1)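 Values are medians from duplicate plates. Each reflects relative viability, defined as the nuclei count of treated wells over that of vehicle wells. Lung cancer cell lines in 1536-well plates were pin-tool dosed one day after seeding with one drug alone or with a fixed anchor-drug dose plus five library-drug doses (not always all listed) in √10 steps, then fixed, stained and imaged at 4× after 5 days.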

NCI-H838 = system: NCI-H838
How it was run: as §1

EMC-BAC-2 = system: EMC-BAC-2
How it was run: as §1

NCI-H2347 = system: NCI-H2347
How it was run: as §1

HOP-62 = system: HOP-62
How it was run: as §1

SW 900 = system: SW 900
How it was run: as §1

NCI-H3122 = system: NCI-H3122
How it was run: as §1

PC-14 = system: PC-14
How it was run: as §1

ChaGo-K-1 = system: ChaGo-K-1
How it was run: as §1

EKVX = system: EKVX
How it was run: as §1

NCI-H2228 = system: NCI-H2228
How it was run: as §1

SK-MES-1 = system: SK-MES-1
How it was run: as §1

201T = system: 201T
How it was run: as §1

RERF-LC-KJ = system: RERF-LC-KJ
How it was run: as §1

SW 1573 = system: SW 1573
How it was run: as §1

NCI-H1355 = system: NCI-H1355
How it was run: as §1

UMC-11 = system: UMC-11
How it was run: as §1

NCI-H2009 = system: NCI-H2009
How it was run: as §1

LK-2 = system: LK-2
How it was run: as §1

HCC-78 = system: HCC-78
How it was run: as §1

LC-2-ad = system: LC-2-ad
How it was run: as §1

## COCC1(CO)C(=O)C2CCN1CC2 (stereo unspecified) [PRIMA-1MET] + Cc1nc(Nc2ncc(C(=O)Nc3c(C)cccc3Cl)s2)cc(N2CCN(CCO)CC2)n1 [Dasatinib] (partner 0.075 µM)
ABC-1; first compound 0.2 µM
  relative viability: 0.705
ABC-1; first compound 0.6325 µM
  relative viability: 0.539
ABC-1; first compound 2 µM
  relative viability: 0.58
ABC-1; first compound 6.325 µM
  relative viability: 0.451
ABC-1; first compound 20 µM
  relative viability: 0.279
NCI-H838; first compound 0.2 µM
  relative viability: 0.31
NCI-H838; first compound 0.6325 µM
  relative viability: 0.279
NCI-H838; first compound 6.325 µM
  relative viability: 0.279
NCI-H838; first compound 20 µM
  relative viability: 0.456
EMC-BAC-2; first compound 0.2 µM
  relative viability: 0.394
EMC-BAC-2; first compound 0.6325 µM
  relative viability: 0.298
EMC-BAC-2; first compound 6.325 µM
  relative viability: 0.378
EMC-BAC-2; first compound 20 µM
  relative viability: 0.247
NCI-H2347; first compound 0.2 µM
  relative viability: 0.766
NCI-H2347; first compound 0.6325 µM
  relative viability: 0.257
NCI-H2347; first compound 2 µM
  relative viability: 0.291
NCI-H2347; first compound 6.325 µM
  relative viability: 0.3
NCI-H2347; first compound 20 µM
  relative viability: 0.37
HOP-62; first compound 0.2 µM
  relative viability: 0.637
HOP-62; first compound 0.6325 µM
  relative viability: 0.7
HOP-62; first compound 2 µM
  relative viability: 0.628
HOP-62; first compound 6.325 µM
  relative viability: 0.658
HOP-62; first compound 20 µM
  relative viability: 0.582
SW 900; first compound 0.2 µM
  relative viability: 0.632
SW 900; first compound 0.6325 µM
  relative viability: 0.642
SW 900; first compound 2 µM
  relative viability: 0.386
SW 900; first compound 6.325 µM
  relative viability: 0.0491
SW 900; first compound 20 µM
  relative viability: 0.0965
NCI-H3122; first compound 0.2 µM
  relative viability: 0.382
NCI-H3122; first compound 0.6325 µM
  relative viability: 0.806
NCI-H3122; first compound 2 µM
  relative viability: 0.439
NCI-H3122; first compound 6.325 µM
  relative viability: 0.433
NCI-H3122; first compound 20 µM
  relative viability: 0.856
PC-14; first compound 0.2 µM
  relative viability: 0.249
PC-14; first compound 0.6325 µM
  relative viability: 0.249
PC-14; first compound 2 µM
  relative viability: 0.276
PC-14; first compound 6.325 µM
  relative viability: 0.249
PC-14; first compound 20 µM
  relative viability: 0.0176
ChaGo-K-1; first compound 0.2 µM
  relative viability: 0.626
ChaGo-K-1; first compound 0.6325 µM
  relative viability: 0.567
ChaGo-K-1; first compound 2 µM
  relative viability: 0.687
ChaGo-K-1; first compound 6.325 µM
  relative viability: 0.54
ChaGo-K-1; first compound 20 µM
  relative viability: 0.363
EKVX; first compound 0.2 µM
  relative viability: 0.469
EKVX; first compound 0.6325 µM
  relative viability: 0.482
EKVX; first compound 2 µM
  relative viability: 0.468
EKVX; first compound 6.325 µM
  relative viability: 0.518
EKVX; first compound 20 µM
  relative viability: 0.564
NCI-H2228; first compound 0.2 µM
  relative viability: 0.638
NCI-H2228; first compound 0.6325 µM
  relative viability: 0.399
NCI-H2228; first compound 2 µM
  relative viability: 0.541
NCI-H2228; first compound 6.325 µM
  relative viability: 0.392
NCI-H2228; first compound 20 µM
  relative viability: 0.0268
SK-MES-1; first compound 0.2 µM
  relative viability: 0.303
SK-MES-1; first compound 0.6325 µM
  relative viability: 0.475
SK-MES-1; first compound 2 µM
  relative viability: 0.447
SK-MES-1; first compound 6.325 µM
  relative viability: 0.286
SK-MES-1; first compound 20 µM
  relative viability: 0.242
201T; first compound 0.2 µM
  relative viability: 0.635
201T; first compound 0.6325 µM
  relative viability: 0.369
201T; first compound 2 µM
  relative viability: 0.59
201T; first compound 6.325 µM
  relative viability: 0.566
201T; first compound 20 µM
  relative viability: 0.582
RERF-LC-KJ; first compound 0.2 µM
  relative viability: 0.759
RERF-LC-KJ; first compound 0.6325 µM
  relative viability: 0.833
RERF-LC-KJ; first compound 2 µM
  relative viability: 0.931
RERF-LC-KJ; first compound 6.325 µM
  relative viability: 0.895
RERF-LC-KJ; first compound 20 µM
  relative viability: 0.673
SW 1573; first compound 0.2 µM
  relative viability: 0.452
SW 1573; first compound 0.6325 µM
  relative viability: 0.411
SW 1573; first compound 2 µM
  relative viability: 0.356
SW 1573; first compound 6.325 µM
  relative viability: 0.0331
SW 1573; first compound 20 µM
  relative viability: 0.0202
NCI-H1355; first compound 0.2 µM
  relative viability: 0.793
NCI-H1355; first compound 0.6325 µM
  relative viability: 0.571
NCI-H1355; first compound 2 µM
  relative viability: 0.785
NCI-H1355; first compound 6.325 µM
  relative viability: 0.766
NCI-H1355; first compound 20 µM
  relative viability: 0.657
UMC-11; first compound 0.2 µM
  relative viability: 0.53
UMC-11; first compound 0.6325 µM
  relative viability: 0.466
UMC-11; first compound 2 µM
  relative viability: 0.504
UMC-11; first compound 6.325 µM
  relative viability: 0.464
UMC-11; first compound 20 µM
  relative viability: 0.444
NCI-H2009; first compound 0.2 µM
  relative viability: 0.298
NCI-H2009; first compound 0.6325 µM
  relative viability: 0.314
NCI-H2009; first compound 2 µM
  relative viability: 0.294
NCI-H2009; first compound 6.325 µM
  relative viability: 0.142
NCI-H2009; first compound 20 µM
  relative viability: 0.0053
LK-2; first compound 0.2 µM
  relative viability: 0.275
LK-2; first compound 0.6325 µM
  relative viability: 0.223
LK-2; first compound 2 µM
  relative viability: 0.329
LK-2; first compound 6.325 µM
  relative viability: 0.164
LK-2; first compound 20 µM
  relative viability: 0.116
HCC-78; first compound 0.2 µM
  relative viability: 0.427
HCC-78; first compound 0.6325 µM
  relative viability: 0.331
HCC-78; first compound 6.325 µM
  relative viability: 0.442
HCC-78; first compound 20 µM
  relative viability: 0.335
LC-2-ad; first compound 0.2 µM
  relative viability: 0.346
LC-2-ad; first compound 2 µM
  relative viability: 0.472
LC-2-ad; first compound 6.325 µM
  relative viability: 0.584
LC-2-ad; first compound 20 µM
  relative viability: 0.508
